# Measurements taken from ChEMBL document CHEMBL4011635 (J Med Chem, 2017).
# Activity calls are given as the source filed them. The calls are words filed in the database; no cut-off is given here.
# Columns and labels:
# [1] = Protein binding in human plasma; assay type: ADME, cell-free; settings: read-out: PPB (converted)
# [2] = Apparent permeability from basolateral to apical side in human Caco2 cells; assay type: ADME, cell-based; settings: Caco-2
# [3] = Aqueous equilibrium solubility of compound in pH 6.8 solution by high throughput assay; assay type: physicochemical; settings: aqueous pH 6.8 solution
# [4] = in vitro; settings: human, Caco-2
# [5] = tested on: Salmonella typhimurium; test: Genotoxicity in Salmonella typhimurium by Ames test; assay type: toxicity; settings: salmonella enterica subsp. enterica serovar typhimurium
# [6] = tested on: Lymphocyte; test: Genotoxicity in human primary lymphocytes by micronucleus test; assay type: toxicity, cell-based
# [7] = Drug uptake in Brown Norway rat plasma at 10 mg/kg, po administered as single dose via gavage after 6 hrs by HPLC-MS/MS analysis; assay type: ADME, organism-based
# [8] = Drug uptake in Brown Norway rat posterior eye cup at 10 mg/kg, po administered as single dose via gavage after 6 hrs by LC-MS/MS analysis; assay type: ADME, organism-based; settings: read-out: Drug uptake
# [9] = Drug uptake in Brown Norway rat neural retina at 10 mg/kg, po administered as single dose via gavage after 6 hrs by LC-MS/MS analysis; assay type: ADME, organism-based; settings: read-out: Drug uptake
# [10] = tested on: Mus musculus; test: In vivo inhibition of Ba generation in plasma of B6-Cfdtm1.1(CFD)Npa mouse at 30 mg/kg, po administered via gavage treated up to 24 hrs prior to test and LPS challenge up to 7.5 hrs prior to test measured up to 8 hrs; assay type: functional, organism-based
# [11] = tested on: Mus musculus; test: In vivo inhibition of complement activation in B6-Cfdtm1.1(CFD)Npa mouse assessed as decrease iC3b generation in eyes at 30 mg/kg, po administered via gavage treated up to 24 hrs prior to test and LPS challenge up to 7.5 hrs prior to test measured up to 12 hrs; assay type: functional, organism-based
# [12] = tested on: Cynomolgus monkey; test: In vivo inhibition of complement factor D in cynomolgus monkey assessed as decrease in zymosan-induced AP activation by measuring soluble MAC complex deposition in serum at 10 to 50 mg/kg, po administered as single dose via gavage measured 4 hrs post dose; assay type: functional, organism-based; settings: Macaca fascicularis
# [13] = tested on: Cynomolgus monkey; test: In vivo inhibition of complement factor D in cynomolgus monkey assessed as serum concentration required to show complete reduction in zymosan-induced AP activation by measuring soluble MAC complex deposition at 10 to 50 mg/kg, po administered as single dose via gavage measured at 4 to 24 hrs post dose by LC-MS analysis; assay type: functional, Macaca fascicularis
# [14] = tested on: Mus musculus; test: In vivo inhibition of complement activation in B6-Cfdtm1.1(CFD)Npa mouse assessed as decrease C3d generation in eyes at 30 mg/kg, po administered via gavage treated up to 24 hrs prior to test and LPS challenge up to 7.5 hrs prior to test measured up to 12 hrs; assay type: functional, organism-based
# [15] = tested on: Cynomolgus monkey; test: In vivo inhibition of complement factor D in cynomolgus monkey assessed as decrease in zymosan-induced AP activation by measuring soluble MAC complex deposition in serum administered as single dose via oral gavage measured at 4 to 24 hrs post dose; assay type: functional, organism-based; settings: Macaca fascicularis
# [16] = target: Voltage-gated inwardly rectifying potassium channel KCNH2 (Homo sapiens, UniProt Q12809)
# [17] = target: Cytochrome P450 3A4 (Homo sapiens, UniProt P08684)
# [18] = target: Cytochrome P450 2D6 (Homo sapiens, UniProt P10635)
# [19] = target: Cytochrome P450 2C9 (Homo sapiens, UniProt P11712)
# [20] = target: Complement factor D (Homo sapiens, UniProt P00746); test: Inhibition of recombinant human complement factor D catalytic domain (G24 to A253 residues) expressed in expressed in Escherichia coli(Rosetta) using Z-Lys-thiobenzylester as substrate preincubated for 1 hr followed by substrate addition by 2,4-dinitrobenzenesulfonyl-2,7-desmethyl-fluorecein probe based spectrofluorimetric assay
# [21] = Clearance in Sprague-Dawley rat at 1 mg/kg, iv administered as bolus dose by LC-MS/MS analysis; assay type: ADME, organism-based; settings: in vivo
# [22] = Terminal half life in Sprague-Dawley rat at 1 mg/kg, iv administered as bolus dose by LC-MS/MS analysis; assay type: ADME, organism-based; settings: in vivo, read-out: beta t1/2 (converted)
# [23] = AUC (0 to 8 hrs) in Sprague-Dawley rat plasma at 10 mg/kg, po by LC-MS/MS analysis; assay type: ADME, organism-based; parameters: dose 10 mg/kg, time < 8 hr, route oral
# [24] = Cmax in Sprague-Dawley rat plasma at 10 mg/kg, po by LC-MS/MS analysis; assay type: ADME, organism-based; parameters: dose 10 mg/kg, route oral
# [25] = Oral bioavailability in Sprague-Dawley rat at 10 mg/kg by LC-MS/MS analysis; assay type: ADME, organism-based; settings: in vivo
fraction unbound [1],Papp B→A [2] [×10⁻⁶ cm/s],solubility thermodynamic [3] [µM],Papp A→B [4] [×10⁻⁶ cm/s],Compound,further results
–,8,7,0.75,NC(=O)n1cc(NC(=O)N2C[C@H](F)C[C@H]2C(=O)Nc2cccc(OC(F)(F)F)c2)c2ccccc21,–
–,17,23,0.77,NC(=O)n1cc(NC(=O)N2C[C@@H](O)C[C@H]2C(=O)Nc2cccc(OC(F)(F)F)c2)c2ccccc21,–
–,5.1,280,2.1,NC(=O)n1cc(NC(=O)N2C[C@@H](N)C[C@H]2C(=O)Nc2cccc(OC(F)(F)F)c2)c2ccccc21,–
–,5.7,77,4.5,NC(=O)n1cc(NC(=O)N2[C@@H]3C[C@@H]3C[C@H]2C(=O)Nc2cccc(OC(F)(F)F)c2)c2ccccc21,–
–,6.3,17,6.1,NC(=O)n1cc(NC(=O)N2CCC[C@H]2C(=O)Nc2cccc(OC(F)(F)F)c2)c2ccccc21,Activity [5]: Non-Toxic; Activity [6]: Non-Toxic; clearance [21]: 21 mL/min/kg; half-life [22]: 1.4 h; AUC(0-t) at 8 h [23]: 4.99 µM·h; Cmax [24]: 1170 nM; bioavailability [25]: 25%

# The next lines start with the compound.
Compound,fraction unbound [1],Papp B→A [2] [×10⁻⁶ cm/s],solubility thermodynamic [3] [µM],Papp A→B [4] [×10⁻⁶ cm/s],further results
NC(=O)c1cn(CC(=O)N2[C@@H]3C[C@@H]3C[C@H]2C(=O)Nc2cccc(Br)n2)c2ccccc12,0.131,–,–,–,–
NC(=O)c1nn(CC(=O)N2[C@@H]3C[C@@H]3C[C@H]2C(=O)Nc2cccc(Br)n2)c2ccccc12,0.08,18.1,170,15.3,Activity [5]: Non-Toxic; Activity [6]: Non-Toxic; concentration at 6 h [7]: 360 nM; concentration at 6 h [8]: 430 nM; concentration at 6 h [9]: 90 nM; inhibition [10]: Active; inhibition [11]: Active; inhibition [12]: Active; INH [13]: >0.5 µM; inhibition [14]: Active; EC50 [15]: 0.038 µM; IC50 [16]: > 30 µM; IC50 [17]: 17 µM; IC50 [18]: > 20 µM; IC50 [19]: > 20 µM
NC(=O)n1cc(NC(=O)N2[C@@H]3C[C@@H]3C[C@H]2C(=O)Nc2cccc(OC(F)(F)F)c2F)c2ccccc21,–,6.5,10,5.1,–
Cn1cc(NC(=O)N2CCC[C@H]2C(=O)Nc2cccc(OC(F)(F)F)c2)c2ccccc21,–,–,–,–,IC50 [20]: 20 µM
NC(=O)n1cc(NC(=O)N2[C@@H]3C[C@@H]3C[C@H]2C(=O)Nc2cccc(C(F)(F)F)c2F)c2ccccc21,< 0.01,7,46,10,–
NC(=O)n1cc(NC(=O)N2[C@@H]3C[C@@H]3C[C@H]2C(=O)Nc2cccc(C(F)(F)F)n2)c2ccccc21,0.048,14.2,110,11.3,–
NC(=O)n1cc(NC(=O)N2[C@@H]3C[C@@H]3C[C@H]2C(=O)Nc2cccc(Br)n2)c2ccccc21,0.036,10.3,57,9.6,–
